Earlier results in patent US8362260B2, “Crystalline forms of dexlansoprazole” (Dipharma Francis S.r.l., priority 2009, dated 2013).

Settings: in vivo

bioavailability: greater bioavailability
SMILES: Cc1c(OCC(F)(F)F)ccnc1C[S@@+]([O-])c1nc2ccccc2[nH]1 [Dexlansoprazole in amorphous form, (R)-2-[[[3-methyl-4(2,2,2-trifluoroethoxy)-2-piridyl]methyl]sulphinyl]benzimidazole]
